One test relates to smooth muscle. Conditions: cited from earlier work.
The test system of test [1] is myosin superfamily members from classes I, V, and X. As to conditions: cited from earlier work.
The next test concerns SHP-1: β-actin complex. Put plainly: SHP-1 immunoprecipitation and anti-β-actin immunoblotting in YTS-2DL1 cells incubated with target cells. The test is classed as cell-based. As to conditions: inhibitory 221-Cw4 cells; 0.5 μM CytD. Here is the method:
YTS-2DL1 cells were incubated at 37° C. with 221-Cw4 or Cw7 cells for 5 min, 1 μM of JAS was added, and cells were incubated for 5 min. Cell lysates were subjected to IP of SHP-1 and IB with anti-β-actin or anti-SHP-1 antibodies. Shown data represent at least three independent experiments.
In FIG. 8D, YTS-2DL1 cells were incubated at 37° C. with 221-Cw4 or Cw7 cells for 5 min, 0.5 μM of CytD was added, and the cells were incubated for an additional 5 min. The cells were lysed, and IPs of SHP-1 were subjected to IB using anti-β-actin or anti-SHP-1. Results shown are representative of three independent experiments.
NK cells (primary or YTS) and ‘221’ target cells (either expressing HLA-Cw4, Cw7 or no HLA) were first incubated separately on ice for 10 min, at a ratio of 1:1. The cells were then mixed, centrifuged and kept on ice for 15 min. The cell mixture was then transferred to 37° C., for the indicated period of time, and subsequently lysed with ice-cold lysis buffer.
For analysis of whole cell lysates, 1-10×10^5 cells were used, and for IP experiments, 10-15×10^6 cells were used. Protein A/G plus-Agarose beads (Santa Cruz Biotechnology) were used for IP. […] Immunoreactive proteins were detected with either anti-mouse or anti-rabbit horseradish peroxidase-coupled secondary antibody followed by detection by enhanced chemiluminescence (PerkinElmer).

The test system of test [2] is F-actin retrograde flow in YTS and pNK F-tractin GFP cells. The experiment in a line: Live cell imaging and kymograph analysis of F-actin retrograde flow (ARF) in F-tractin GFP NK cells. The test is classed as cell-based. Conditions: 0.5 μM CytD, anti-CD28 or anti-KIR2DL1. The text has this:
FIGS. […] In FIG. 5A, YTS F-tractin GFP cells were dropped over coverslips coated with anti-CD28 or anti-KIR1 antibodies, and imaged at 1 frame/sec through a single focal plane. […] Representative images are shown. Kymographs of F-actin dynamics were compiled along the contact site radius. […]
The y axis represents F-actin velocity (μm/sec), and the x axis—time from initial spreading (sec).
FIGS. 5E-5H. show analyses of NKIS area and ARF in the activating vs. inhibitory NKIS in the presence of Y-27632 (Y-27) inhibitor of myosin light chain (MLC) phosphorylation and/or JAS. […] NKIS area was determined using ImageJ. […]
Analyses of actin and SHP-1 dynamics were performed by preparing kymographs from live cell videos and tracing the movement of the fluorescently tagged proteins. […] Velocity over distance from the center was determined by calculating the velocity of the tracked protein based on the distance traversed to time between each two points on the trace, and noting the relative location from the center of the measured area. […] For each bin, average velocity and standard error were calculated. Average distance traversed over time was calculated by measuring the location of the trace, relative to its point of origin at each time point after the beginning of the trace. For each relative time point from the beginning of a trace, an average distance and standard error were calculated. […]

The test system of test [3] is SHP-1. Put plainly: PTP assay: SHP-1 catalytic activity (pNPP hydrolysis) after treatment of NK-target cell conjugates. It is filed as cell-based. Conditions: YTS-2DL1 + 221-Cw4, untreated 100%; 0.5 μM CytD. Here is the method: YTS-2DL1 cells were pretreated with 25 μM Y-27 or left untreated. Cells were incubated at 37° C. with target cells for 5 min, 1 μM of JAS was added, and samples were incubated for 5 minutes before lysis. IP of SHP-1 was performed, and precipitates were incubated with pNpp. SHP-1 activity was determined by measuring absorbance at 405 nm. The graph represents rates of SHP-1 catalytic activity from three independent experiments.
In FIG. 8E, YTS-2DL1 cells were incubated at 37° C. with 221-Cw4 or Cw7 cells for 5 min, treated with 0.5 μM of CytD or left untreated, and SHP-1 activity was determined as detailed in the Materials and Methods. Graph summarizing percent of relative SHP-1 catalytic activity obtained by four independent experiments. Data are means±SEM.
SHP-1 catalytic activity was determined by measuring the hydrolysis of the exogenous substrate p-Nitrophenyl Phosphate (pNPP) by SHP-1, as previously described. NK cells (2-5×10^6) were incubated with target cells at ratio of 1:1, activated as described above, and lysed with passive ice-cold lysis buffer (1% Brij, 1% n-Octyl-b-D-glucoside, 50 mM Tris-HCl, pH 7.4, 150 mM NaCl, 5 mM ethylenediaminetetraacetic acid, and complete protease inhibitor tablets). Cell lysates were subjected to IP with anti-SHP-1 antibody. […] Reactions were terminated by adding 800 μl 1M NaOH, and SHP-1 activity was determined by measuring absorbance at 405 nm.

Test [4] concerns the target T1, SHP-1 (Homo sapiens, UniProt P29350).
T1 construct: expressed in transfected cells; host or cells: HEK 293T cells, unpurified lysate
Put plainly: MST analysis for the binding of YFP-SHP-1 and actin-derived peptides. As to conditions: for binding to SHP-1: lysates of HEK 293T cells expressing YFP-SHP-1, peptides 400 μM-48 nM.
Description: Binding curves were generated by the NanoTemper analysis software (MO.Affinity Analysis v2.1.3). The graph summarizes the changes of the fluorescent thermophoresis signals as a function of peptide concentration from at least three independent experiments. Data are means±SD.
YFP-tagged SHP-1 was obtained from cell lysates of Human Embryonic Kidney (HEK) 293T cells, transiently transfected with YFP-SHP-1 by DNA-calcium phosphate co-precipitation, as previously described (Reicher B, et al (2012) Molecular and cellular biology 15: 3153-3163). MST measurements were performed using the protein purification-free method described by Khavrutskii et al. (Khavrutskii L, et al (2013) Journal of visualized experiments: JoVE). Briefly, each peptide (Synpeptide) was initially dissolved in Dimethylformamide (DMF), diluted in DDW (supplemented with 1 mM DTT) to reach stock concentration of 80004, and serially diluted (range from 400 μM to 48.8 nM) in HEPES buffer (50 mM, supplemented with 0.05% Tween-20 and 1 mM DTT) in 200 μL PCR-tubes. Then, YFP-SHP-1-containing cell lysate was added to the serially diluted tubes at a 1:1 ratio and the samples were gently mixed. The samples were allowed to incubate at room temperature for 30 min before being loaded into standard-treated Monolith™ capillaries (NanoTemper). After loading into the instrument (Monolith NT.115, NanoTemper), microthermophoresis was carried out using 40% LED power and 40% MST power. The changes of the fluorescent thermophoresis signals were plotted against the concentration of the serially diluted peptides. KD values were determined using the NanoTemper analysis software (MO.Affinity Analysis v2.1.3).
The SHP-1-β-actin complex formation was also examined using microscale thermophoresis (MST) technology. […] Lysates of HEK 293T cells transiently expressing YFP-SHP-1 were incubated with decreasing concentrations of the different peptides followed by MST analysis.

The target of test [5] is CFP-actin (UniProt P60709). Put plainly: FRET between YFP-SHP-1 and CFP-actin in YTS cells at the activating NKIS (221-Cw7 target cells).
The target of test [6] is CFP-actin (UniProt P60709). Put plainly: FRET between YFP-SHP-1 and CFP-actin in YTS cells at the inhibitory NKIS (221-Cw4 target cells).
Test [7] concerns the target YFP-SHP-1 (human SHP-1 wt tagged with YFP) (human) (UniProt P29350). The experiment in a line: MST, peptide titrated into lysate of HEK 293T cells expressing YFP-SHP-1.
For test [8] the target is unchanged. Put plainly: MST, lysate of 293T cells expressing YFP-SHP-1 with serially diluted peptide.

Here are results for seven molecules from patent US20190343801A1, “COMPOSITIONS AND METHODS FOR CONTROLLING NATURAL KILLER CELL ACTIVATION AND FUNCTION” (BAR ILAN UNIVERSITY, priority 2017, published 2019).

Where no end group is shown, it is not given here.

T1 sequence (P29350 whole entry): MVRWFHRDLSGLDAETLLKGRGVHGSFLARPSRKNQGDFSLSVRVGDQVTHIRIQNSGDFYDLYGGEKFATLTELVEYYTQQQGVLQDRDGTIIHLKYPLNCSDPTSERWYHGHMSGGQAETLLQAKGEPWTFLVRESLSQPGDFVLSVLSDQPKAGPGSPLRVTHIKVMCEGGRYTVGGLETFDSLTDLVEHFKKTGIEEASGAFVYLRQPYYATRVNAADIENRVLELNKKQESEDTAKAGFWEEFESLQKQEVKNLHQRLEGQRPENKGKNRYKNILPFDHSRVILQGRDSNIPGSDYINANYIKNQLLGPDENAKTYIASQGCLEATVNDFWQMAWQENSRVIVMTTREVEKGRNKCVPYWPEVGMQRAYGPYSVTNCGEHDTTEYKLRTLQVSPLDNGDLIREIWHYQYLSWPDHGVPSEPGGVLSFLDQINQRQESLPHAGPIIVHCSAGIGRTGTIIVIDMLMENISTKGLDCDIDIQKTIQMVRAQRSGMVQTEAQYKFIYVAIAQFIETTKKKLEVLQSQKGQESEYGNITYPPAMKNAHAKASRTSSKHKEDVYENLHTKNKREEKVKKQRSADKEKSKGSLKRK

As usually defined, the IC50 is the midpoint of a concentration-inhibition curve. Turning to `Cc1ccc2c(c1)C(=O)C1(O)CCN(c3ccccc3)C1=N2` (stereo not drawn) [Blebbistatin], the IC50 in the test with smooth muscle was 80 µM. Also, the inhibition entry in [1] is “does not inhibit”.

In the case of `C=C1[C@@H](C)[C@H]2C(Cc3ccccc3)NC(=O)[C@]23[C@H](OC(C)=O)/C=C/[C@@](C)(O)C(=O)[C@@H](C)C/C=C/[C@H]3[C@@H]1O` (stereo partly drawn) [CytD, Cytochalasin D], in the test on SHP-1: β-actin complex, the “SHP-1 binding to β-actin” value is on record as “increased binding of SHP-1 to β-actin”. Moreover, in test [2], the “ARF velocity at the LP” value is “significant reduction in ARF velocity”. The “relative SHP-1 catalytic activity” value in the test with SHP-1 [3] worked out at 55.4±8.4%.

On to EYQKASGVSG (irrelevant control peptide), for which, in the test with SHP-1 [4], the “binding to SHP-1” value is listed as “no binding was detected”.

For “KEKLCFVALDF (mutant actin peptide) [Y-F mutant, single aa mutant form of the β-actin peptide, tyrosine to phenylalanine substitution]”, the “binding to SHP-1” value in the test with SHP-1 [4] is “no binding was detected”.

The Kd is the free concentration of one partner at which half of the binding sites on the other are occupied at equilibrium, for simple one-to-one binding. Higher therefore signals weaker binding. Turning to “KEKLCYVALDF [WT actin peptide, KEKLCYVALDF]”, the Kd at SHP-1 [4] was found to be 39.5 ± 6.2 µM.

On to “YFP-SHP-1 (human SHP-1 wt tagged with YFP) (from UniProt P29350 1-595) (enzyme)”, for which the FRET efficiency with CFP-actin [5] worked out at 8.5%; with CFP-actin [6] it was 18.9%.

B1: WT β-actin derived peptide containing an ITIM motif (…) (peptide)
peptide: KEKLCYVALDF
The EC50 (read off the curve) is the midpoint of the concentration-response curve. A high value points to a need for much substance. In turn, B1 registered a Kd in [7] of 39.5 µM. The molecule also gave a concentration giving a half-maximal response (EC50 (read off the curve)) in [8] of 40 µM.
